# Assay results published in patent US20230026869A1, “CRYSTAL FORM OF NUCLEOPROTEIN INHIBITOR AND USE THEREOF” (CHIA TAI TIANQING PHARMACEUTICAL GROUP CO., LTD., priority 2019, published 2023).
# Legend:
# [1] = Metabolic stability in CD-1 mice liver microsomes; format: in vitro ADME
# Procedure: (§1) Objective: The metabolic stability of the test compound in CD-1 mice and human liver microsomes was determined. […]
# [2] = Metabolic stability in human liver microsomes; format: in vitro ADME
# Procedure: as §1
# [3] = Metabolic stability in liver microsomes of beagle dogs; format: in vitro ADME; settings: dog
# Procedure: Objective: The metabolic stability of the tested compound of formula (I) in liver microsomes of rats, beagle dogs and cynomolgus monkeys was determined. […]
# [4] = Liver-to-blood ratio in Balb/c mice orally administered with the test compound; format: in vivo; settings: Balb/c female mice, oral administration, 3 mg/kg
# Procedure: Experiment on the Liver-to-Blood Ratio in Balb/c Mice Orally Administered with the Test Compound The compound of formula (I) was mixed with an aqueous solution containing […] polyethylene glycol-15 hydroxystearate, and the mixture was vortexed and sonicated to prepare a 0.3 mg/mL clear solution for later use. Balb/c female mice aged 7 to 10 weeks were orally administered with the candidate compound solution at a dose of 3 mg/kg. Whole blood at a certain time point was collected and plasma was prepared. Liver tissues at the corresponding time point were collected to prepare a tissue homogenate. Drug concentration was analyzed by LC-MS/MS and pharmacokinetic parameters were calculated with Phoenix WinNonlin software.
# hepatitis B virus = test: In vivo efficacy study, HDJ/HBV mouse model (HBV DNA in plasma and liver by qPCR); set-up: species or system mice
# Procedure: Objective: The efficacy of the compound against hepatitis B virus in mice was determined through the HDJ/HBV mouse model.
# Preparation of compound: the solvent was 10% polyethylene glycol-15 hydroxystearate; a certain amount of the tested compound of formula (I) was dissolved in an aqueous solution containing 10% polyethylene glycol-15 hydroxystearate, and the mixture was vortexed and sonicated to prepare a homogeneous suspension, and the suspension was stored at 4° C. for later use.
# High pressure injection of the HBV plasmid DNA solution via the tail vein of mice: the day of plasmid injection was day 0, the day after injection was day 1, and so on. On day 0, all animals were injected by tail vein with a saline solution containing 10 μg of plasmid DNA at a volume of […] of body weight, and the injection was completed within 5 seconds.
# Administration: all mice were administered intragastrically twice a day (8/16 h interval) on day 1-6 and once on day 7. All mice were euthanized in the afternoon on day 7. The body weight of the mice, which was monitored every day, remained stable throughout the experiment.
# Sample collection: blood was collected from the submandibular vein 4 h after the first administration in the morning on days 1, 3, and 5. All blood samples were collected in K2-EDTA anticoagulation tubes, and centrifuged for 10 min at 4° C., 7000 g to prepare about 40 μL of plasma. All mice were euthanized by CO2 four hours after administration in the morning on day 7. Blood was collected from the heart, and the plasma preparation method was the same as above. Two liver tissues were collected with 70-100 mg each, and quick-frozen by liquid nitrogen. After all samples were collected, they were stored in a refrigerator (−80° C.) for HBV DNA content detection.
# Sample analysis: all plasma samples and liver samples were detected for HBV DNA by qPCR.
# [5] = 10 mg/kg intragastrically twice a day
# [6] = 30 mg/kg intragastrically twice a day
smiles,measurement,setting,value
CC1(NC(=O)C(=O)c2c(Cl)c(C(=O)Nc3cc(F)c(F)c(F)c3)c3n2CCC3)CCC(CC(=O)O)CC1 (stereo not shown) [Compound of formula (I)],microsomal CLint at 1 μM,"[1]; CD-1, mouse, microsomes",< 9.6 µL/min/mg
same,CLint scaled at 1 μM,"[1]; mouse, CD-1 mice liver microsomes",< 38 mL/min/kg
same,half-life at 1 μM,"[1]; mouse, CD-1 mice liver microsomes, 1 μM compound, 0.5 mg/mL",> 145 min
same,half-life at 1 μM,"[2]; Human liver microsomes, 1 μM compound, 0.5 mg/mL",> 145 min
same,CLint scaled at 1 μM,[2]; human liver microsomes,< 8.6 mL/min/kg
same,microsomal CLint at 1 μM,"[2]; human, microsomes",< 9.6 µL/min/mg
same,microsomal CLint at 1 μM,"[3]; beagle, microsomes",< 9.6 µL/min/mg
same,CLint scaled at 1 μM,[3]; Beagle dogs liver microsomes,< 13.8 mL/min/kg
same,half-life at 1 μM,"[3]; Beagle dogs liver microsomes, 1 μM compound, 0.5 mg/mL",> 145 min
same,AUC0-last,[4]; Liver,86036 nmol·h/kg
same,Kp,"[4]; mouse, liver / plasma, read-out: AUC ratio (L/P) Liver/plasma exposure ratio",24.7
same,AUC(0-t),"[4]; mouse, Plasma",3.48 µM·h
same,"HBV-DNA reduction, Liver (day 7)",hepatitis B virus; [5],0.94 Δ Log10 copies/100 ng
same,"HBV-DNA reduction, Plasma (day 5)",hepatitis B virus; [5],2.0 Δ Log10 copies/μL
same,"HBV-DNA reduction, Liver (day 7)",hepatitis B virus; [6],2.36 Δ Log10 copies/100 ng
same,"HBV-DNA reduction, Plasma (day 5)",hepatitis B virus; [6],3.57 Δ Log10 copies/μL
